The record followed here is patent US20040197268A1, “Method of imaging amyloid deposits using substituted rhodanine derivatives” (priority 1999, published 2004).

Data set [1] deals with T1, Aβ(1-40) (Homo sapiens, UniProt P05067).
T1 construct: Soluble Aβ(1-40) peptide (Bachem, Torrance, Calif.); purchased Bachem, Torrance, Calif
Description: BASSR (Beta-Amyloid Self-Seeding Radioassay), inhibitors of self-seeded amyloid fibril growth. Particulars: 30 μM soluble Aβ(1-40) + 125I-labeled Aβ(1-40), pH 7.5, 37° C., 3 to 5 hours, filtration. The class given is biochemical. On the procedure:
BASSR (Beta-Amyloid Self-Seeding Radioassay)
(§1) An assay for inhibitors of self-seeded amyloid fibril growth
Assay Buffer—50 mM sodium phosphate, pH 7.5, 100 mM NaCl, 0.02% NaN3, 1 M urea (filter and store at 4° C.)
Soluble Aβ(1-40) peptide (Bachem, Torrance, Calif.)—2.2 mg/mL in deionized H2O (stored in aliquots at −20° C., keep on ice when thawed) will self-seed after 1 week storage. Typically, the solution should be stored until no lag phase is seen in the assay.
^125I-labeled Aβ(1-40)—150K-350K cpm/μL in 100% acetonitrile—0.1% trifluoroacetic acid (TFA)—1% β-mercaptoethanol (aliquots stored at −20° C.). ^125I-labeled Aβ(1-40) can be made in accordance with the procedure set forth by H. Levine, III in Neurobiol. Aging, 16:755 (1995), which is hereby incorporated by reference, or this reagent may be purchased from Amersham, Arlington Heights, Ill.
Final assay conditions: 30 μM soluble Aβ(1-40) in deionized water in assay buffer+20-50K cpm ^125I-labeled Aβ(1-40) per assay. Compound to be tested is dissolved in dimethylsulfoxide (DMSO), typically 5-50 mM stock, such that the final concentration of DMSO is <1% v/v in the assay.
Assay: Reaction mixture for 50 assays (on ice) is comprised of 0.1-0.2 μL of […] ^125I-labeled Aβ(1-40)+1 μL of soluble Aβ(1-40)+13.5 μL assay buffer per assay. The following are the amounts of the components of the reaction mixture sufficient for 50 assay wells.
1) Prepare reaction mixture above by mixing components and storing on ice.
2) Pipet 14.5 μL of reaction mixture into each of 50 wells on a polypropylene U-bottom 96-well microtiter plate on ice (Costar 3794).
3) Add 1.7 μL of diluted compound to be tested to each well in a column of eight, including solvent control. Serial 3-fold dilutions from 1 mM (100 μM final) in assay buffer−urea=7 dilutions+zero. Each 96-well plate can therefore accommodate 11 samples+1 Congo Red control (0.039-5 μM final in 2-fold steps).
4) Seal the plate with aluminum film (Beckman 538619) and incubate for 10 minutes on ice.
5) Raise the temperature to 37° C. and incubate for 3 to 5 hours (depending on the lot of the peptide).
6) Remove the aluminum film and add 200 μL/well of ice cold assay buffer with urea, collecting the radiolabeled fibrils by vacuum filtration through 0.2 μm pore size GVWP filters in 96-well plates (Millipore MAGV N22, Bedford, Mass.). Determine the radioactivity of the filters using standard methods well-known to those skilled in the art.

A further data set concerns the target T2, Aβ(1-42) (Homo sapiens, UniProt P05067).
T2 construct: Required Aβ(1-42)(California Peptide) was dried from its hexafluoroisopropanol (HFIP) stock solution; purchased California Peptide
Description: BATYM Assay (Aβ(1-42) aggregation, Thioflavin T fluorescence). Particulars: Aβ 1-42 final concentration 100 μM, PBS pH 7.4, 37° C., 1 day, ThT fluorescence. It counts as biochemical. On the procedure: Required Aβ(1-42)(California Peptide) was dried from its hexafluoroisopropanol (HFIP) stock solution. The Aβ(1-42) was dissolved in dimethylsulfoxide (DMSO) and then mixed with phosphate buffered saline, (PBS) (pH 7.4). The mixed Aβ(1-42) solution was filtered with a 0.2 μm Omnipore membrane syringe filter (Millipore, Bedford, Mass.). The compound to be tested in DMSO (50 times concentrate) was put into each well (0.5 μL/well) of a 96-well plate. The Aβ(1-42) solution was added into each well (24.5 μL/well). The plate was centrifuged at 1,000 g for 5 minutes and incubated at 37° C. for 1 day (Aβ 1-42; final concentration 100 μM).
After incubation Thioflavin T (ThT) (30 μM) solution in glycine-NaOH buffer (pH 8.5, 50 mM) was added into each well (250 μL/well), fluorescence was measured (ex. 440/20 nm; em 485/20 nm) using a fluorescence plate reader. The inhibitory activity was calculated as the reduction of fluorescence with the following formula:
inhibition (%)={(F(Aβ)−F(Aβ+compound)}/{F(Aβ)−F(solvent+compound)}×100
The IC50s were calculated by a curve fitting program using the following equation. The data were obtained from two different experiments in triplicate.
x=concentration of tested compound (M),

Data set [2] deals with T1, Aβ(1-40). Description: BASST (Beta-Amyloid Self-Seeding, ThioflavinT), inhibitors of self-seeded amyloid fibril growth. It counts as biochemical. The conditions noted are these: 30 μM soluble Aβ(1-40), pH 7.5, 37° C., 3 to 5 hours, thioflavin T fluorescence. Here is the method: BASST (Beta-Amyloid Self-Seeding, ThioflavinT)
as §1
Assay Buffer—50 mM sodium phosphate, pH 7.5, 100 mM NaCl, 0.02% NaN3, 1 M urea (filter and store at 4° C.).
Soluble Aβ(1-40)—2.2 mg/mL in deionized H2O (store in aliquots at −20° C., keep on ice when thawed) will self-seed after 1 week storage. Typically, the solution should be stored until no lag phase is seen in the assay.
Final assay conditions: 30 μM soluble Aβ(1-40) in deionized water in assay buffer. Compound to be tested is dissolved in DMSO, typically 5-50 mM stock, such that the final concentration of DMSO is <1% v/v in the assay.
Assay: Reaction mixture for 50 assays (on ice) comprised of 1 μL of soluble Aβ(1-40)+13.5 μL assay buffer per assay. The following are the amounts of the components of the reaction mixture that result in each of the 50 assay wells.
1) Prepare the reaction mix above by mixing the components and storing on ice.
2) Pipet […] of reaction mixture into each of 50 wells of a polystyrene U-bottom 96-well microtiter plate (Corning 25881-96) on ice.
3) Add […] of diluted compound to be tested to each well in a column of eight, including solvent control. Serial 3-fold dilutions from 1 mM (100 μM final) in assay buffer−urea=7 dilutions+zero. Each 96-well plate can therefore accommodate 11 samples+1 Congo Red control (0.039-5 μM final in 2-fold steps).
4) Seal the plate with aluminum film and incubate for 10 minutes on ice.
5) Raise the temperature to 37° C. and incubate for 3 to 5 hours (depends on the lot of the peptide).
6) Remove the aluminum film and add 250 μL/well of 5 μM thioflavin T (ThT) [T-3516, Sigma-Aldrich] in 50 mM glycine-NaOH, pH 8.5. Read fluorescence on a plate reader (ex=440 nm/20 nm; em=485 nm/20 nm) within 5 minutes.

In data set [3] the target is T3, beta amyloid peptide Aβ(1-40) (Homo sapiens, UniProt P05067).
T3 construct: 0.5 mg/mL AP (140) peptide in 20% HFIP+0.1 μL/assay radioiodinated ^125I Aβ(1-40)
Description: BAPA (Beta-Amyloid Peptide Aggregation), pH 6.0. The conditions noted are these: Aβ(1-40) 33 μM, pH 6.0, 2 to 4 hours at room temperature, filtration. It counts as biochemical. On the procedure:
BAPA (Beta-Amyloid Peptide Aggregation)
This assay is used to provide a measure of inhibition by a compound against the aggregation behavior of the beta amyloid peptide.
The purpose of this assay is to provide a higher volume method of assaying the amount of beta amyloid aggregation using an endpoint assay based on filtration. In this assay, hexafluoroisopropanol (HFIP) is used to break down the initial amyloid peptide to a monomer state and use a concentration of 33 μM which is high enough so that aggregation will occur at pH 6.0 in several hours.
β-Amyloid Peptide Aggregation, pH 6.0 (BAPA)
In a 96-well plate (Costar 3794), we add […] 50 mM Phosphate Buffer, pH 6.0, 10 μL 0.5 mg/mL AP (140) peptide in 20% HFIP+0.1 μL/assay radioiodinated ^125I Aβ(1-40) [^125I Aβ(1-40)], and 1 μL of the compound to be tested starting at 50 mM with a concentration of DMSO <1%. Then, we incubate for 2 to 4 hours at room temperature. We stop the reaction with […] of 50 mM phosphate buffer, pH 6.0, and filter it through a 0.2 μm 96-well filter plate (Millipore MAGU N22). We wash the filter plate with 100 μL of the same phosphate buffer. Aggregation was detected on a Microbeta counter after impregnating the filters with Meltilex (1450-441) and is corrected for background.

SMILES strings stand for the structures. Values joined by “and” are separate entries in the source; they are usually repeats but may differ in a detail not shown here. Identical values can stand only once.

T3 sequence (P05067 672-711 limits assumed): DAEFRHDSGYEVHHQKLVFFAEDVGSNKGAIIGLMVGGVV
T1 sequence (P05067 672-711 limits assumed): as above
T2 sequence (P05067 672-713 limits assumed): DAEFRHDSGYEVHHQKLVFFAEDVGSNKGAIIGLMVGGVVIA

In turn, `CCCCCN(CCCCC)c1ccc(/C=C2\SC(=S)N(CC(=O)NS(=O)(=O)c3ccccc3)C2=O)cc1` [Example 22, (Z) N-{2-[5-(4-Dipentylamino-benzylidene)-4-oxo-2-thioxo-thiazolidin-3-yl]-acetyl}-benzenesulfonamide] had a melting point of 121 to 123 °C. Further, the IC50 on Aβ(1-40) [1] amounted to 3 µM. The IC50 at Aβ(1-42) was determined as 1.99 µM. On Aβ(1-40) [2], this compound yielded an IC50 of 1 µM. Also, the IC50 in data set [3] was > 60 µM.
Take `CCCC1CCN(c2ccc(/C=C3\SC(=S)N(CC(=O)NS(C)(=O)=O)C3=O)cc2)CC1` [Example 37, (Z) N-(2-{4-Oxo-5-[4-(4-propyl-piperidin-1-yl)-benzylidene]-2-thioxo-thiazolidin-3-yl}-acetyl)methanesulfonamide]: the melting point stood at 254 °C. For the same compound, the IC50 at Aβ(1-40) [1] turned out to be 50 µM. Moreover, it took 3.83 µM to reach half-maximal inhibition against Aβ(1-42) (IC50). The same compound registered an IC50 at Aβ(1-40) [2] of 0.4 µM. Besides, in data set [3], the IC50 is > 60 µM.
For `O=C(NS(=O)(=O)CCN1C(=O)/C(=C/c2ccc(N3CCC4CCCCC4C3)cc2)SC1=S)c1ccc(F)cc1` (stereo not drawn) [Example 30, (Z) 2-{5-[4(Octahydro-isoquinolin-2-yl)benzylidene]-4-oxo-2′-thioxo-thiazolidin-3-yl}-ethanesulfonic acid 4-fluoro-benzoylamide] the same measures were 248 °C, > 100 µM, 2.26 µM, 0.3 µM and > 60 µM.
In the same order, the values of `CCCCN(CCCC)c1ccc(/C=C2\SC(=S)N(Cc3cc(=O)c(O)co3)C2=O)cc1` [Example 33, (Z) 5-(4-Dibutylamino-benzylidene)-3-(5-hydroxy-4-oxo-4H-pyran-2-ylmethyl)-2-thioxo-thiazolidin-4-one] are 226 to 227 °C, > 100 µM, 3.03 µM, 2 µM and > 60 µM.
In the same order, the values of `CCCCCN(CCCCC)c1ccc(/C=C2\SC(=S)N(CC(=O)NS(C)(=O)=O)C2=O)cc1` [Example 6, (Z) N-{5-[4-(Dipentylamino-benzylidene)4-oxo-2-thioxo-thiazolidin-3-yl]-acetyl}-methanesulfonamide] are 134 to 138 °C, > 100 µM, 2.92 µM, 28.5 µM and 3 µM.
Compound `O=C(CN1C(=O)/C(=C/c2ccc(N3CC[C@@H]4CCCC[C@H]4C3)cc2)SC1=S)NS(=O)(=O)c1ccc(F)cc1` [Example 38, (Z) 4-Fluoro-N-(2-{5-[(4aS,8aR)-4-(octahydro-isoquinolin-2-yl)-benzylidene]-4-oxo-2-thioxo-thiazolidin-3-yl}-acetyl)-benzenesulfonamide] had a melting point of 220 to 221 °C. Further, on Aβ(1-40) [1], the IC50 was 10 µM and 5 µM. At Aβ(1-42), this compound yielded an IC50 of 2.54 µM. Further, on Aβ(1-40) [2], the IC50 was 0.7 µM and 0.1 µM. Besides, in data set [3], the IC50 worked out at 66 µM.
`CCCCCCN(C)c1ccc(/C=C2\SC(=S)N(CCNS(C)(=O)=O)C2=O)cc1` [Example 10, (Z) N-(2-{5-[4-(Hexyl-methyl-amino)-benzylidene]-4-oxo-2-thioxo-thiazolin-3-yl}-ethyl)-methanesulfonamide] returned a melting point of 150 to 153 °C. For the same compound, the IC50 on Aβ(1-40) [1] is > 100 µM. For the same compound, it took 2.51 µM to reach half-maximal inhibition on Aβ(1-42) (IC50). At Aβ(1-40) [2], this compound came in with an IC50 of 1.1 µM. The compound further returned an IC50 in data set [3] of 8 µM.
For `O=C(NS(=O)(=O)CCN1C(=O)/C(=C/c2ccc(N3CCC4CCCCC4C3)cc2)SC1=S)c1ccccc1` (stereo not drawn) [Example 29, (Z) 2-{5-[4-(Octahydro-isoquinolin-2-yl)-benzylidene]-4-oxo-2-thioxo-thiazolidin-3-yl}-ethanesulfonic acid benzoylamide] the same measures were 213 °C, 11 µM, 3.42 µM, 0.6 µM and > 100 µM.
Consider `CCCC1CCN(c2ccc(/C=C3\SC(=S)N(CC(=O)NS(=O)(=O)c4ccc(F)cc4)C3=O)cc2)CC1` [Example 39, (Z) 4-Fluoro-N-(2-{4-oxo-5-[4-(4-propyl-piperidin-1-yl)-benzylidene]-2-thioxo-thiazolidin-3-yl}-acetyl)-benzenesulfonamide], for which the melting point turned out to be 197 °C. At Aβ(1-40) [1], the IC50 is > 100 µM and 21 µM. Half-maximal inhibition at Aβ(1-42) (IC50) required 2.86 µM. In addition, on Aβ(1-40) [2], the IC50 was 1 µM and 0.1 µM. The same compound showed an IC50 in data set [3] of 37 µM.

A word on the IC50: it is the concentration that gives 50% inhibition. Broadly, the melting point is the temperature, or range, at which the solid turns liquid.
